Laboratory results taken from US20250319191A1, “PHARMACEUTICAL COMPOSITION COMPRISING HYALURONIC ACID COMPLEX FOR PREVENTION OR TREATMENT OF SKIN DISEASE” (AJOU UNIVERSITY INDUSTRY-ACADEMIC COOPERATION FOUNDATION, priority 2021, published 2025).

Biological target: recombinant TLR4 (Homo sapiens, UniProt O00206)
Test: Interaction with TLR4 by surface plasmon resonance
Type: binding
Settings: 0-800 μg/ml, 10 μl/min, 120 seconds
From the text: In order to immobilize a target receptor on an assay chip, the receptor was immobilized on the chip by flowing recombinant TLR4 while flowing an EDC/NHS solvent. Thereafter, ethanolamine was flowed to remove weakly immobilized or non-immobilized receptor on the chip.

Chain of recombinant TLR4 (O00206 24-839, species assumed): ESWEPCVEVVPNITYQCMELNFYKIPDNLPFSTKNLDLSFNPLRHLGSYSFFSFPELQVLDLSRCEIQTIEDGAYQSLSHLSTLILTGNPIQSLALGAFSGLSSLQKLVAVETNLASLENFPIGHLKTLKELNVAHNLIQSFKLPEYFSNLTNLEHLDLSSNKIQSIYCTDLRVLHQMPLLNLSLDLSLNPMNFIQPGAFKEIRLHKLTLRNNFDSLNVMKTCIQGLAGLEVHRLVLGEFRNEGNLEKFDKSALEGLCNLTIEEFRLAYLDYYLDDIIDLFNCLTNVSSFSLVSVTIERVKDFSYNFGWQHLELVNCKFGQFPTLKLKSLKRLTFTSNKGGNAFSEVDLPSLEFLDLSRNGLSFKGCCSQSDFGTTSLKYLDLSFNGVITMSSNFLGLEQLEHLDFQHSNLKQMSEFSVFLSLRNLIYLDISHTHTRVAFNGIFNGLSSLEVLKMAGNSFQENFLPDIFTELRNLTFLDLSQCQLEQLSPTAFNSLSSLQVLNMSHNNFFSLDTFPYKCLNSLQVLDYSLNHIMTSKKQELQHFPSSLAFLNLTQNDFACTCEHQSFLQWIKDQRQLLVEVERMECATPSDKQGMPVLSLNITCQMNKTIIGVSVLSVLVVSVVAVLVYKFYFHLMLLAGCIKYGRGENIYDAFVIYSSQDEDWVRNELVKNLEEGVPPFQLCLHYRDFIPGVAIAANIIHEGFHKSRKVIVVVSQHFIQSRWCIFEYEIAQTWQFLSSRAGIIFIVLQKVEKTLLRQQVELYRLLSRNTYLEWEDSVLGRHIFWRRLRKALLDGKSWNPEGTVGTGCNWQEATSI

## hyaluronic acid [10 kDa free HA]
  change in response unit (RU) value: the increase in RU value identified in the HACN group was not observed
